Active and inactive are the calls of the source. No cut-off for these calls is given here.

Experimental findings from ChEMBL document CHEMBL3217494, “Selective inhibition of EGFR and VEGFR2 tyrosine kinases controlled by a boronic acid substituent on 4-anilinoquinazolines” (Medchemcomm, 2010) are described below.

Assay [1] has as its target T1, Epidermal growth factor receptor (Homo sapiens, UniProt P00533). In words: Inhibition of EGFR catalytic domain (unknown origin) assessed as reduction of poly(Glu:Tyr) substrate phosphorylation after 20 mins by ELISA.
The target of assay [2] is Receptor tyrosine-protein kinase erbB-2 (Homo sapiens, UniProt P04626). Briefly: Inhibition of HER2 catalytic domain (unknown origin) assessed as reduction of poly(Glu:Tyr) substrate phosphorylation after 20 mins by ELISA. In general terms: An ELISA detects its analyte on a solid surface through an enzyme-linked reagent.
Assay [3] deals with Vascular endothelial growth factor receptor 1 (Homo sapiens, UniProt P17948). In words: Inhibition of Flt-1 catalytic domain (unknown origin) assessed as reduction of poly(Glu:Tyr) substrate phosphorylation after 20 mins by ELISA.
Sequence of Vascular endothelial growth factor receptor 1 (P17948 whole entry, the tested form may be a part): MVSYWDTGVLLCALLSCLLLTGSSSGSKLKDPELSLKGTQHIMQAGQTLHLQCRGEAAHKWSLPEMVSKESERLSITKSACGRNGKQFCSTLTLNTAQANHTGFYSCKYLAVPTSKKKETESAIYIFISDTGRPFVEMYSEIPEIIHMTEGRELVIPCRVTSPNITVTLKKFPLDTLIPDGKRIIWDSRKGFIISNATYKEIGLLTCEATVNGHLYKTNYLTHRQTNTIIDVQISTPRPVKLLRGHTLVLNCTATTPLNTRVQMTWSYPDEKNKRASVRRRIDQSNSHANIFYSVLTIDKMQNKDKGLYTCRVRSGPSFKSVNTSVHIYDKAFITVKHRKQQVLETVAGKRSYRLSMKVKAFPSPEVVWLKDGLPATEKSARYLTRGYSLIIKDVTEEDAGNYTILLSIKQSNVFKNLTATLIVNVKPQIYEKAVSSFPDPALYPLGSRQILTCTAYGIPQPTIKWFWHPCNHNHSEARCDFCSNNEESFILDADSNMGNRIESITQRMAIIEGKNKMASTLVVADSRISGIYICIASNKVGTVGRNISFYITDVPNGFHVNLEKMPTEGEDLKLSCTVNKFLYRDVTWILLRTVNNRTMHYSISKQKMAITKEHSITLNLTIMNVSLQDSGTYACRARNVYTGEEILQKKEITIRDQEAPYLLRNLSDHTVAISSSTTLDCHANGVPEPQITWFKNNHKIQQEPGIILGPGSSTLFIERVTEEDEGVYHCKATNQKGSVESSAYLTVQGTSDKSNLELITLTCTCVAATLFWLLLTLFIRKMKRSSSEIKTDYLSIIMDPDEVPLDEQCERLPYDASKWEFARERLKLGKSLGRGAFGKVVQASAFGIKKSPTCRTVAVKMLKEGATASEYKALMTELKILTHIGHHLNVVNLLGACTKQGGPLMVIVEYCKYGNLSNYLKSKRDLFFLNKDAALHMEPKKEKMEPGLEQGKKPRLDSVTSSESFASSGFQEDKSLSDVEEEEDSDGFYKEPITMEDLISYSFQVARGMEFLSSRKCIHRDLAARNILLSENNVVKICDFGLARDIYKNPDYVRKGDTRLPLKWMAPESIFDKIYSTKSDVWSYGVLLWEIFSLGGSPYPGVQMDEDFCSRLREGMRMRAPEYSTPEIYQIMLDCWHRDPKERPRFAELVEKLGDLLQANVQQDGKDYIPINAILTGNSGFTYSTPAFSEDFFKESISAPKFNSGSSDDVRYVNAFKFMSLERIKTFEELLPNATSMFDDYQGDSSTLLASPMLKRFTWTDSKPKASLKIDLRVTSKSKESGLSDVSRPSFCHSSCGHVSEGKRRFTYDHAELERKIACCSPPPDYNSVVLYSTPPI
Assay [4] concerns the target T2, Vascular endothelial growth factor receptor 2 (Homo sapiens, UniProt P35968). Briefly: Inhibition of KDR catalytic domain (unknown origin) assessed as reduction of poly(Glu:Tyr) substrate phosphorylation after 20 mins by ELISA.
Assay [5] addresses T1, Epidermal growth factor receptor. In words: Inhibition of EGF-induced EGFR autophosphorylation in human A431 cells at 1 uM by immunoblot analysis. The format is cell-based. The conditions noted are these: A-431. (Immunoblotting shows a protein as a band on a membrane.)
The target is the same in assay [6]. In words: Inhibition of EGFR in human A431 cells assessed as decrease in EGF-induced ERK phosphorylation at 1 uM by immunoblot analysis. The conditions noted are these: A-431. The assay is classed as cell-based.
Assay [7] has the same target. In words: Inhibition of EGFR in human A431 cells assessed as decrease in EGF-induced Akt phosphorylation at 1 uM by immunoblot analysis. The format is cell-based. Conditions: A-431.
For assay [8], the target named is T2, Vascular endothelial growth factor receptor 2. In words: Inhibition of VEGF-induced KDR phosphorylation in human HUVEC cells at 1 uM by immunoblot analysis. The format is cell-based.

T1 sequence (P00533 whole entry, the tested form may be a part): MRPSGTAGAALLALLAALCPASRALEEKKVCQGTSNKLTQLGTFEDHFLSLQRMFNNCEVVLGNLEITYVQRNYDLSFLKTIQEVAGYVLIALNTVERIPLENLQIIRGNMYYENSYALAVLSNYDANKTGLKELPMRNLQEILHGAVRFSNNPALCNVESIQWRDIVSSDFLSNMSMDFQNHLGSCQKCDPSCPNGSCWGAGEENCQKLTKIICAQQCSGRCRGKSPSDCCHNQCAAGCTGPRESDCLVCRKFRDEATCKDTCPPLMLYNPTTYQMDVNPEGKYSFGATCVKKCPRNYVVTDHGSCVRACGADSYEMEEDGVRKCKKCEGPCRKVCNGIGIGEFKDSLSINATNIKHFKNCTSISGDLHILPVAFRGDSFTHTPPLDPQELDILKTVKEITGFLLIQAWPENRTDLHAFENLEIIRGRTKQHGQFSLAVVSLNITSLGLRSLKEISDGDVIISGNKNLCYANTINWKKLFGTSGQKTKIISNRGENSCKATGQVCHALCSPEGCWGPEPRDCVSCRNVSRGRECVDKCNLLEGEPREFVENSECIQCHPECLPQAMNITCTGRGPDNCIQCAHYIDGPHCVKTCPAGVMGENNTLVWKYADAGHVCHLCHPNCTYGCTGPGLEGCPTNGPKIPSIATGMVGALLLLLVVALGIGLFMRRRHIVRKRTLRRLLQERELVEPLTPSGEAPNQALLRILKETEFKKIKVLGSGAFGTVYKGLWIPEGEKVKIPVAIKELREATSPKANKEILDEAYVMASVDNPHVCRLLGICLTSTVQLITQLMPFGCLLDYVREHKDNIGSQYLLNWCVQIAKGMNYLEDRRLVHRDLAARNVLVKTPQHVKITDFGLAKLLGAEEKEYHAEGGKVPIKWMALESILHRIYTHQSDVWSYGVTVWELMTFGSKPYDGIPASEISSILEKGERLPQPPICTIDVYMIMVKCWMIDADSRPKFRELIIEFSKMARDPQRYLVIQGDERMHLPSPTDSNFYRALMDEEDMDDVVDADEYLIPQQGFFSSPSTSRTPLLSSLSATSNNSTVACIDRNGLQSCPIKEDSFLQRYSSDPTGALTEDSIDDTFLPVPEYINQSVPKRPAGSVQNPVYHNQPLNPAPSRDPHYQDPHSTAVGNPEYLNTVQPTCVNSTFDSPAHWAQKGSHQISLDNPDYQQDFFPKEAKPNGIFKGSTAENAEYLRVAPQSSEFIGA
T2 sequence (P35968 whole entry, the tested form may be a part): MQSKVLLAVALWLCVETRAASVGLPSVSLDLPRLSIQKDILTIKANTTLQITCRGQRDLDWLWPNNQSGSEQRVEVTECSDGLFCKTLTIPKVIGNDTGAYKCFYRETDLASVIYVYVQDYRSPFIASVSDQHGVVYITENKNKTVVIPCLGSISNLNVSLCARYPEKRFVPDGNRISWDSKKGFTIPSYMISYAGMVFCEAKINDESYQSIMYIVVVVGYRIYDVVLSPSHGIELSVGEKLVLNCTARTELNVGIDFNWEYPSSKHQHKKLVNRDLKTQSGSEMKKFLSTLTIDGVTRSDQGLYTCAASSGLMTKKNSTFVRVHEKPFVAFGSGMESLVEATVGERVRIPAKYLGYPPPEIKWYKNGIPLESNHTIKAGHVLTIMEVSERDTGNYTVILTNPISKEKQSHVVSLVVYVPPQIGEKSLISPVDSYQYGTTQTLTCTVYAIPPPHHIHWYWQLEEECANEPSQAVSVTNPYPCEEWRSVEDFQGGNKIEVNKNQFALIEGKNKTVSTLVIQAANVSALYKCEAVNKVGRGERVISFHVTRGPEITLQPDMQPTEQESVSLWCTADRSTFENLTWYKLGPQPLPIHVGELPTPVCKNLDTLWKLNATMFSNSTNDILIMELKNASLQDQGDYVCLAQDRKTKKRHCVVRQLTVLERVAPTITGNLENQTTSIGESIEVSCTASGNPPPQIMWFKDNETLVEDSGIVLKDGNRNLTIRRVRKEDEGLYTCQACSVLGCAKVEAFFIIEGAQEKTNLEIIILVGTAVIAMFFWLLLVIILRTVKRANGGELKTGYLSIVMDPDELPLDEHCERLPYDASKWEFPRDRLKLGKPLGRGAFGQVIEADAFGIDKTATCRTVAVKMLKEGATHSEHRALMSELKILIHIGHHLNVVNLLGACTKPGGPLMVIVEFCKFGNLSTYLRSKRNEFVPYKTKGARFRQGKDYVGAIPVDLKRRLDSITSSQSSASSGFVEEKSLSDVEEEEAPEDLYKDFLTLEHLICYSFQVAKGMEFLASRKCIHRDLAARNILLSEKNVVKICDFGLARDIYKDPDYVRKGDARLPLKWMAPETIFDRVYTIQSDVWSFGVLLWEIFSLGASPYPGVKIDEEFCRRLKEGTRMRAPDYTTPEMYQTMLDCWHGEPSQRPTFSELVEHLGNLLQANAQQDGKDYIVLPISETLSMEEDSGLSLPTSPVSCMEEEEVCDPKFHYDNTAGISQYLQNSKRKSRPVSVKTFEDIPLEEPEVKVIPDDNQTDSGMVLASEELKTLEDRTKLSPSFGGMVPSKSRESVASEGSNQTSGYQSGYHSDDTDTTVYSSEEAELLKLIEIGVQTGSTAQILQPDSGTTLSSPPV

Regarding `COc1cc2ncnc(Nc3cccc(Cl)c3)c2cc1B1OC(C)(C)C(C)(C)O1`, the IC50 (in general, the concentration that inhibits the measured activity by half) is 490 nM in assay [1], greater than 1000 nM in assay [2], greater than 1000 nM in assay [3] and greater than 1000 nM in assay [4]. Moreover, the inhibition result in assay [5], in assay [6] and in assay [7] was “Active” throughout.
With `COc1cc2ncnc(Nc3ccc(F)c(Cl)c3)c2cc1B(O)O`, the IC50 in assay [1] was 510 nM; in assay [2], greater than 1000 nM; in assay [3] it was greater than 1000 nM; in assay [4], greater than 1000 nM. Besides, the inhibition entry in assay [5], in assay [6] and in assay [7] was “Active” each time.
`COc1cc2ncnc(Nc3cccc(B(O)O)c3)c2cc1OC`: the IC50 in assay [1] is greater than 1000 nM; in assay [2] it was greater than 1000 nM; in assay [3] it was greater than 1000 nM; in assay [4], 390 nM. For the same molecule, the inhibition entry in assay [5], in assay [6], in assay [7] and in assay [8] was “inactive” each time.
For `CC1(C)OB(c2ccc3ncnc(Nc4cccc(Cl)c4)c3c2)OC1(C)C`, the IC50 in assay [1] was 590 nM; in assay [2] it was greater than 1000 nM; in assay [3], greater than 1000 nM; in assay [4], greater than 1000 nM. Moreover, the inhibition entry in assay [5], in assay [6] and in assay [7] was “Active” throughout.
Regarding `COc1cc2ncnc(Nc3cccc(Cl)c3)c2cc1B(O)O`, the IC50 in assay [1] is 460 nM; in assay [2], greater than 1000 nM; in assay [3] it was greater than 1000 nM; in assay [4] it was greater than 1000 nM. In addition, the inhibition result in assay [5], in assay [6] and in assay [7] was “Active” in each case.
In the case of `CC1(C)OB(c2ccc3ncnc(Nc4ccc(F)c(Cl)c4)c3c2)OC1(C)C`, the IC50 in assay [1] is 570 nM; in assay [2], greater than 1000 nM; in assay [3], greater than 1000 nM; in assay [4], greater than 1000 nM. The inhibition entry in assay [5], in assay [6] and in assay [7] was “Active” throughout.
Regarding `COCCOc1cc2ncnc(Nc3cccc(B(O)O)c3)c2cc1OCCOC`, the concentration for half-maximal inhibition (IC50) in assay [1] is greater than 1000 nM; in assay [2] it was greater than 1000 nM; in assay [3] it was greater than 1000 nM; in assay [4] it was 190 nM. Further, the inhibition result in assay [5], in assay [6] and in assay [7] was “inactive” each time. In assay [8], the inhibition result was “Active”.
As for `COc1cc2ncnc(Nc3ccc(F)c(Cl)c3)c2cc1B1OC(C)(C)C(C)(C)O1`, the half-maximal inhibitory concentration (IC50) in assay [1] is 520 nM; in assay [2], greater than 1000 nM; in assay [3], greater than 1000 nM; in assay [4] it was greater than 1000 nM. The inhibition entry in assay [5], in assay [6] and in assay [7] was “Active” in each case.
`COc1cc2ncnc(Nc3ccc(B(O)O)cc3)c2cc1OC`: the IC50 in assay [1] is greater than 1000 nM; in assay [2] it was greater than 1000 nM; in assay [3], greater than 1000 nM; in assay [4] it was 36 nM. In addition, the inhibition result in assay [5], in assay [6], in assay [7] and in assay [8] was “inactive” throughout.
`OB(O)c1ccc2ncnc(Nc3ccc(F)c(Cl)c3)c2c1`: the IC50 in assay [1] is 800 nM; in assay [2], greater than 1000 nM; in assay [3] it was greater than 1000 nM; in assay [4], greater than 1000 nM. Moreover, the inhibition result in assay [5], in assay [6] and in assay [7] was “Active” each time.
Turning to `COCCOc1cc2ncnc(Nc3cccc(B(O)O)c3)c2cc1OC`, the IC50 in assay [1] is greater than 1000 nM; in assay [2], greater than 1000 nM; in assay [3], greater than 1000 nM; in assay [4] it was 180 nM. The inhibition result in assay [5], in assay [6] and in assay [7] was “inactive” throughout. Also, the inhibition result in assay [8] was “Active”.
Take `O=C(Nc1cccc(C(F)(F)F)c1)c1ccccc1NCc1ccncc1`: the IC50 in assay [2] is greater than 1000 nM.
Consider `COCCOc1cc2ncnc(Nc3ccc(B(O)O)cc3)c2cc1OC`, for which the IC50 in assay [1] was greater than 1000 nM; in assay [2], greater than 1000 nM; in assay [3], greater than 1000 nM; in assay [4], 860 nM. In addition, the inhibition result in assay [5], in assay [6] and in assay [7] was “inactive” throughout. Moreover, the inhibition result in assay [8] is “Active”.
In the case of `COCCOc1cc2ncnc(Nc3ccc(B(O)O)cc3)c2cc1OCCOC`, the IC50 in assay [1] was greater than 1000 nM; in assay [2], greater than 1000 nM; in assay [3] it was greater than 1000 nM; in assay [4] it was 37 nM. Also, the inhibition entry in assay [5], in assay [6] and in assay [7] was “inactive” throughout. In assay [8], the inhibition entry was “Active”.
Turning to `OB(O)c1ccc2ncnc(Nc3cccc(Cl)c3)c2c1`, the IC50 in assay [1] is 650 nM; in assay [2], greater than 1000 nM; in assay [3], greater than 1000 nM; in assay [4], greater than 1000 nM. Besides, the inhibition entry in assay [5], in assay [6] and in assay [7] was “Active” each time.
